We go through 4 compounds from patent US8362010B2, “Benzenesulfonanilide compounds suitable for treating disorders that respond to modulation of the serotonin 5-HT6 receptor” (Abbott GmbH & Co. KG, priority 2009, dated 2013).

Structures can show the parent of a compound that is named as a salt.

T1 sequence (P50406 whole entry): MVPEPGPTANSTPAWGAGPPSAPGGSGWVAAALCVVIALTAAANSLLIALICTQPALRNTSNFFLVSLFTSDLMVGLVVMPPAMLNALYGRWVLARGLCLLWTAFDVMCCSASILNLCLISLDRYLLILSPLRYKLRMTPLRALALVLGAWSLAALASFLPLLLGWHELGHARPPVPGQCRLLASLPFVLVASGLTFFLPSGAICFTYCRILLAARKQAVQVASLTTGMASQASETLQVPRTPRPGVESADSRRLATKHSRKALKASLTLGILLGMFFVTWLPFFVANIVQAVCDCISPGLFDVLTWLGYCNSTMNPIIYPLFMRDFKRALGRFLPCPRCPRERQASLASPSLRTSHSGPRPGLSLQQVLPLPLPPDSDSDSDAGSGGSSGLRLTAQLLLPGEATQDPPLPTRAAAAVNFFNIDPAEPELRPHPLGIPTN

This assay addresses T1, h-5-HT6 receptor (Homo sapiens, UniProt P50406).
T1 construct: expressed in transfected cells; host or cells: HEK293
The assay can be described thus: 5-HT6 receptor binding assay (displacement of [3H]-LSD). To be noted: membranes of HEK293 cells expressing h-5-HT6; 1 nM [3H]-LSD. How it is done:
Displacement of radioligands binding to the following cloned human receptors
Cells from stable clonal cell lines expressing the corresponding receptor (5-HT6, α1-adrenergic, dopamine D2 or histamine H1 receptors) were washed with PBS (w/o Ca^++, Mg^++) and harvested in PBS with 0.02% EDTA. […] The pellets were stored at −80° C. until use. For membrane preparation, the thawed cell pellet was resuspended in ice-cold sucrose buffer (0.25 M sucrose, 10 mM Hepes (pH 7.4), 1 mM Phenylmethylsulfonyl fluoride (PMSF) in DMSO, 5 μg/ml Pepstatin-A, 3 mM EDTA, 0.025% Bacitracin) and homogenized with a Branson Sonifier W-250 (Settings: Timer 4; Output Control 3; Duty Cycle constant; 2 to 3 cycles). Cell disruption was checked with the aid of a microscope. […] The sucrose buffer supernatant was then centrifuged at 60.000 g for 1 h at 4° C. (Beckman Ultrazentrifuge XL 80). The pellet was resuspended in 30 ml ice-cold Tris buffer (20 mM TRIS (pH 7.4), 5 μg/ml Pepstatin A, 0.1 mM PMSF, 3 mM EDTA) by pipetting through a 10 ml serological pipet and centrifuged for 1 h at 4° C. at 60.000 g. A final resuspension was performed in a small volume of ice-cold Tris buffer (see above) by pressing through a serological pipet followed by ultrasonic treatment with a Branson Sonifier W-250 (Settings: Timer 1; Output Control 3; Duty Cycle constant; 1 cycle). Protein concentration was determined (BCA-Kit; Pierce) and aliquots stored at −80° C. or in liquid nitrogen for long-term storage.
All receptor binding experiments were carried out in the corresponding assay buffer in a total volume of 200 μl in the presence of various concentrations of test compound (10^−5 M to 10^−9 M, tenfold serial dilution, duplicate determinations). The assays were terminated by filtration on polyethylenimine (PEI 0.1% or 0.3%) presoaked Packard Unifilter Plates (GF/C or GF/B) with a Tomtec MachIII U 96 well-plate harvester. After the plates had been dried for 2 h at 55° C. in a drying chamber scintillation cocktail (BetaPlate Scint; PerkinElmer) was added. Radioactivity was measured in a Microbeta Trilux two hours after the addition of the scintillation mixture. Data derived from liquid scintillation counting were analysed by iterative non-linear regression analysis with the use of the Statistical Analysis System (SAS): a program similar to “LIGAND” as described by Munson and Rodbard (Analytical Biochemistry 107, 220-239 (1980). […]
Data derived from liquid scintillation counting were analyzed by iterative non-linear regression analysis with the use of the Statistical Analysis System (SAS): a program similar to “LIGAND” as described by Munson and Rodbard (Anal. Biochem. 1980, 107, 220-239). […] IC50, nH and Ki values were expressed as geometrical mean.
For orientation: In a radioligand displacement assay an active substance lowers the binding of a labelled ligand.
Turning to `Cc1ccc(NS(=O)(=O)c2cccc(OC(F)F)c2)cc1N1CCCNCC1` [Example 7, N-(3-[1,4]Diazepan-1-yl-4-methyl-phenyl)-3-difluoromethoxy-benzenesulfonamide hydrochloride], the Ki was less than 50 nM. `COc1ccc(NS(=O)(=O)c2ccccc2OC(F)F)cc1N1CCCNCC1` [Example 3, N-(3-[1,4]Diazepan-1-yl-4-methoxy-phenyl)-2-difluoromethoxy-benzenesulfonamide hydrochloride] gave a Ki of less than 10 nM. For `COc1ccc(NS(=O)(=O)c2cccc(OC(F)F)c2)cc1N1CCCNCC1` [Example 1, N-(3-[1,4]Diazepan-1-yl-4-methoxy-phenyl)-3-difluoromethoxy-benzenesulfonamide hydrochloride], the Ki was less than 10 nM. `Cc1ccc(NS(=O)(=O)c2ccccc2OC(F)F)cc1N1CCCN(C)CC1` [Example 8, 2-Difluoromethoxy-N-[4-methyl-3-(4-methyl-[1,4]diazepan-1-yl)-phenyl]-benzenesulfonamide hydrochloride] displayed a Ki of less than 10 nM.

What is called Ki is a measure of affinity in units of concentration, obtained from inhibition or displacement.
